According to patent publication US20100022509A1, “Inhibitors of MshC and Homologs Thereof, and Methods of Identifying Same” (priority 2006, published 2010):
Like-named read-outs stand apart in the source and are kept apart here. Marks after values point to notes of the source that are not given here.

Legend:
Type in all cases: biochemical, M. tuberculosis
MshC [1] = biological target: T1, MshC (Mycobacterium tuberculosis, UniProt P9WJM9); assay: Metal chelation by phenanthrolines; settings: 0.1-5 mM phenanthroline
T1 sequence (P9WJM9 1-414): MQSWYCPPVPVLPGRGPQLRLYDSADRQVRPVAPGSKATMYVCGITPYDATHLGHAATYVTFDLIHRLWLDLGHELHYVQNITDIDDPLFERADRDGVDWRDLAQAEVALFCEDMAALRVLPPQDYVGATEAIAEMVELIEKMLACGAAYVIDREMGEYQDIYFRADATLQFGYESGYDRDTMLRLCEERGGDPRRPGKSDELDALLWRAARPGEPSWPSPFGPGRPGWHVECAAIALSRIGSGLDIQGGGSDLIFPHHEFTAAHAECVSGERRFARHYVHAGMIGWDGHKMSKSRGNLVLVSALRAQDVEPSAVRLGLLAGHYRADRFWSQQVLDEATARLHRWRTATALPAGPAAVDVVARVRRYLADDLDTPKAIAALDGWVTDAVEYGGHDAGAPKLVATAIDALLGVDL

MshC [2] = biological target: T1, MshC; assay: Inhibition studies of MshC ligase activity (HEPES pH 7.5, HPLC); settings: for % inhibition: 50 μM GlcN-Ins and 70 μM Cys
MshC [3] = biological target: T1, MshC; settings: for activity as alternative substrate to Cys, in words: 80 μM to 1.6 mM
MshC [4] = biological target: T1, MshC; assay: biochemical
MshC [5] = biological target: T1, MshC; assay: Zn supplementation; settings: 2, 10, 50 or 100 μM zinc chloride
MshC [6] = biological target: T1, MshC; assay: Coupled enzyme spectrophotometric screening assay (MshC plus pyrophosphatase, malachite green); settings: 1.6 mM cysteamine, 1 μg MshC
[7] = 80-1600 μM, 70 μM L-Cys and 50 μM GlcN-Ins

c1cnc2c(c1)ccc1cccnc12 [1,10-phenanthroline]
effect on enzyme activity, in words (MshC [1]): no significant loss of activity

CC(=O)N[C@@H](CS)C(=O)O [AcCys, N-acetylcysteine]
inhibition of the ligase activity, in words (MshC [2]; [7]): minor inhibition | % inhibition (MshC [2]; [inhibitor] 1600 μM): 20 ± 6% | relative spec. act. (MshC [3]): ≦0.24 | activity as alternative substrate to Cys, in words (MshC [3]): Nor was significant activity detected

N[C@@H](CS)C(=O)O [Cys, L-cysteine]
apparent Vmax (MshC [3]): 1450 ± 200 nmol/min/mg | Specific activity (MshC [3]; Cys 70 μM, 50 μM GlcN-Ins, 37° C.): ^cSpecific activity 108 nmol min^−1 mg^−1. | relative spec. act. (MshC [3]; Cys 70 μM, reference): (100)^c | Km (MshC [3]; as stated in the feedback inhibition paragraph, read-out: apparent Km value for Cys): 70 ± 15 µM | Km (MshC [3]; pH 7.5, read-out: apparent Km for L-Cys): 85 ± 20 µM

N[C@@H](CS)C(=O)N[C@H]1[C@@H](OC2[C@H](O)[C@H](O)C(O)[C@H](O)[C@H]2O)O[C@H](CO)[C@@H](O)[C@@H]1O (stereo partly shown) [Cys-GlcN-Ins, cysteinyl glucosaminyl inositol]
inhibition (feedback) (MshC [2]): < 1.0%

N[C@H](CS)C(=O)O [D-Cys]
inhibition of the ligase activity, in words (MshC [2]; [7]): very minor inhibition | % inhibition (MshC [2]; [inhibitor] 1600 μM): 15 ± 8% | relative spec. act. (MshC [3]): ≦0.7 | activity as alternative substrate to Cys, in words (MshC [3]): poor substrate

N[C@H]1C(O)O[C@H](CO)[C@@H](O)[C@@H]1O (stereo partly drawn) [D-GlcN]
activity relative to GlcN-Ins (MshC [3]): ~1% | relative spec. act. (MshC [3]): 1.2

N[C@H]1[C@@H](O[C@@H]2[C@H](O)[C@H](O)[C@@H](O)[C@H](O)[C@H]2O)O[C@H](CO)[C@@H](O)[C@@H]1O [GlcN-Ins, 1-O-(2-amino-2-deoxy-α-D-glucopyranosyl)-D-myo-inositol]
apparent Vmax (MshC [3]; GlcN-Ins varied, 1 mM ATP and 0.5 mM Cys): 1160 ± 120 nmol/min/mg | Km (MshC [3]; pH 7.5, read-out: apparent Km for GlcN-Ins): 280 ± 43 µM

O=C(NCC1CCCN1)c1ccc2c(c1)N(Cc1cccc(Cl)c1)C(=O)c1ccccc1S2(=O)=O (stereo not shown) [Inhibitor 1947]
inhibition of MshC in words, Z is a benzyl moiety bearing one or more halogens (MshC [4]): Measurable inhibition | inhibition of MshC in words, compounds grouped by X (MshC [4]): Significant inhibition | IC50 (MshC [4]; IC50, μM): 2300 ± 300 µM

O=C(NCCCN1CCC(Cc2ccccc2)CC1)c1ccc2c(c1)N(Cc1cccc(Cl)c1)C(=O)c1ccccc1S2(=O)=O [Inhibitor 1949]
inhibition of MshC in words, compounds lacking the basic amino group or with groups in excess of 10 carbons on the remote amino residue (MshC [4]): little or no inhibition | IC50 (MshC [4]; IC50, μM): > 3000 µM

CCC1CCCCN1CCCNC(=O)c1ccc2c(c1)N(Cc1cccc(Cl)c1)C(=O)c1ccccc1S2(=O)=O (stereo not shown) [Inhibitor 1954]
inhibition of MshC in words, 1,3-diaminopropyl residue with remote amino residue capable of protonation (MshC [4]): measurable inhibition | inhibition of MshC in words, Z is a benzyl moiety bearing one or more halogens (MshC [4]): Measurable inhibition | IC50 (MshC [4]; IC50, μM): 1100 ± 200 µM | inhibition of MshC in words, compounds grouped by X (MshC [4]; X=S, X=SO, X=SO2): Significant inhibition

O=C(NCCCSC1CCCCC1)c1ccc2c(c1)N(Cc1cccc(Cl)c1)C(=O)c1ccccc1S2(=O)=O [Inhibitor 1964]
inhibition of MshC in words, compounds lacking the basic amino group or with groups in excess of 10 carbons on the remote amino residue (MshC [4]): little or no inhibition | IC50 (MshC [4]; IC50, μM): > 3000 µM

CCCCN(C)CCCNC(=O)c1ccc2c(c1)N(Cc1cccc(Cl)c1)C(=O)c1ccccc1S2(=O)=O [Inhibitor 1965]
inhibition of MshC in words, 1,3-diaminopropyl residue with remote amino residue capable of protonation (MshC [4]): measurable inhibition | inhibition of MshC in words, Z is a benzyl moiety bearing one or more halogens (MshC [4]): Measurable inhibition | IC50 (MshC [4]; IC50, μM): 1700 ± 300 µM | inhibition of MshC in words, compounds grouped by X (MshC [4]; X=S, X=SO, X=SO2): Significant inhibition

CCN(C(=O)c1ccc2c(c1)N(Cc1cccc(Cl)c1)C(=O)c1ccccc1S2(=O)=O)c1ccccc1 [Inhibitor 1966]
IC50 (MshC [4]; IC50, μM): > 3000 µM

COC(=O)c1cc2c(cc1NC(=O)c1ccc3c(c1)N(Cc1cccc(Cl)c1)C(=O)c1ccccc1[S+]3[O-])OCCO2 (stereo not shown) [Inhibitor 1984]
IC50 (MshC [4]; IC50, μM): > 3000 µM

COC(=O)c1cc(NC(=O)c2ccc3c(c2)N(Cc2cccc(Cl)c2)C(=O)c2ccccc2[S+]3[O-])cc(C(=O)OC)c1 (stereo not shown) [Inhibitor 1986]
IC50 (MshC [4]; IC50, μM): > 3000 µM

C[C@H](N)C(=O)O [L-alanine]
inhibition of the ligase activity, in words (MshC [2]; [7]): very minor inhibition | % inhibition (MshC [2]; [inhibitor] 5000 μM): 4 ± 8% | relative spec. act. (MshC [3]): ≦0.016 | activity as alternative substrate to Cys, in words (MshC [3]): Nor was significant activity detected

N[C@@H](CCS)C(=O)O [L-homocysteine]
inhibition of the ligase activity, in words (MshC [2]; [7]): very minor inhibition | % inhibition (MshC [2]; [inhibitor] 1600 μM): 0 ± 5% | relative spec. act. (MshC [3]): ≦0.2 | activity as alternative substrate to Cys, in words (MshC [3]): Nor was significant activity detected

N[C@@H](CO)C(=O)O [L-serine]
inhibition of the ligase activity, in words (MshC [2]; [7]): very minor inhibition | % inhibition (MshC [2]; [inhibitor] 5000 μM): 15 ± 8% | relative spec. act. (MshC [3]): ≦0.008 | activity as alternative substrate to Cys, in words (MshC [3]): Nor was significant activity detected

CC[C@H](N)C(=O)O [L-α-aminobutyric acid]
inhibition of the ligase activity, in words (MshC [2]; [7]): very minor inhibition

CC(=O)N[C@@H](CS)C(=O)N[C@H]1[C@@H](OC2[C@H](O)[C@H](O)C(O)[C@H](O)[C@H]2O)O[C@H](CO)[C@@H](O)[C@@H]1O (stereo partly drawn) [MSH, 1-D-myo-inosityl 2-(N-acetyl-L-cysteinyl)amido-2-deoxy-α-D-glucopyranoside]
inhibition of the ligase activity, in words (MshC [2]; 1 and 5 mM, physiologic levels): minimal inhibition | % inhibition (MshC [2]; [inhibitor] 1000 μM): 4 ± 3% | % inhibition (MshC [2]; [inhibitor] 5000 μM): 7 ± 5%

CN(CCCNC(=O)c1ccc2c(c1)N(Cc1cccc(Cl)c1)C(=O)c1ccccc1[S+]2[O-])C1CCCCC1 (stereo not shown) [NTF1836]
IC50 (MshC [4]; 50, 100 and 200 μM in 0.005% Triton X-100, reciprocal plot of velocity versus inhibitor concentration, read-out: IC50): ~100 µM | IC50 (MshC [4]; read-out: IC50 for MshC activity in an vitro enzyme assay): 100 µM

[Cl-].[Cl-].[Zn+2] [Zn^2+, zinc chloride]
effect on enzyme activity, in words (MshC [5]): loss in activity

NCCS [cysteamine]
inhibition of the reaction catalyzed by MshC, in words (MshC [4]; using the HPLC assay): weak inhibitor | rate of phosphate production in the coupled enzyme assay (MshC [6]): markedly depressed | reduction in rate (MshC [2]; 1.6 mM): 3 fold | % inhibition (MshC [2]; [inhibitor] 1600 μM): 65 ± 10% | relative spec. act. (MshC [3]): ≦0.16

O=C(O)CCS [β-mercaptopropionate, β-mercaptopropionic acid]
inhibition of the ligase activity, in words (MshC [2]; [7]): minor inhibition | % inhibition (MshC [2]; [inhibitor] 1600 μM): −20 ± 20% | relative spec. act. (MshC [3]): ≦0.004
